Results reported in EPA's ToxValDB 9.5 (doi:10.2903/j.efsa.2011.1941).

Experiments:
[1] = system: Colinus virginianus
[2] = system: Apis mellifera; conditions: acute; duration: 48 hours; dermal; mortality
[3] = system: Pimephales promelas; conditions: chronic/long-term; duration: 36 days; growth
[4] = system: Anas platyrhynchos
[5] = system: Rattus norvegicus
[6] = system: Tagia sp.
[7] = system: Daphnia magna; conditions: chronic/long-term; duration: 21 days; reproduction
[8] = system: Lepomis macrochirus; conditions: acute; duration: 96 hours; mortality
[9] = system: Typhlodromus pyri; conditions: chronic/long-term
[10] = system: Aphidius rhopalosiphi; conditions: chronic/long-term

| Compound | LC50 ([1]; acute, oral, diet, mortality) [mg/kg-day] | LD50 ([1]; acute, oral, mortality) [mg/kg-day] | NOEC ([1]; reproduction developmental) [mg/kg-day] | LD50 [2] [µg/piece] | NOEC [3] [mg/L] | NOEC ([4]; reproductive) [mg/kg-day] | LC50 ([4]; short-term, oral, feed, mortality) [mg/kg-day] | LD50 ([5]; acute, oral, mortality) [mg/kg-day] | NOEL ([5]; chronic) [mg/kg-day] | NOAEL ([5]; chronic, duration: 2 years, hematological) [mg/kg-day] | NOAEL ([5]; subchronic, duration: 90 days, oral, hematological) [mg/kg-day] | LC50 ([6]; acute, duration: 14 days, mortality) [mg/kg] | NOEC ([6]; chronic/long-term, duration: 56 days, reproduction) [mg/kg] | NOEC [7] [mg/L] | LC50 [8] [µg/mL] | LEL ([9]; duration: 7 days, mortality) [g/ha] | LEL ([9]; reproduction) [g/ha] | LEL ([10]; mortality) [g/ha] | LEL ([10]; reproduction) [g/ha] | NOAEL ([5]; short-term, duration: 6 days) [mg/kg-day] |
| --- | --- | --- | --- | --- | --- | --- | --- | --- | --- | --- | --- | --- | --- | --- | --- | --- | --- | --- | --- | --- |
| O=C(NC(=O)c1ccccc1Cl)Nc1ccc(OC(F)(F)F)cc1 [Triflumuron] | > 805 | 561 | 1.65 | > 200 | ≥ 0.0228 | 6.9 | 180 | > 5000 | 142 | 0.82 | 3.6 | > 500 | > 378 | 3.2e-05 | > 0.0208 | 384 | 384 | 300 | 300 |  |
| Nc1ccc(OC(F)(F)F)cc1 [4-Trifluoromethoxyaniline] |  |  |  |  |  |  |  |  |  |  |  |  |  |  |  |  |  |  |  | 0.5 |
